Assay results from ChEMBL document CHEMBL1201862, “PubChem BioAssay data set” (2004).
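These data come from cells grown in 96-well plates and exposed to compound for 48 hours at five concentrations. At the GI50, growth is halved.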 Activity calls are given as the source filed them. No stated cut-off is given here; in the data, active = GI50 up to about 1.1 µM and inactive = higher.

Experiments:
Experiment in all cases: DTP human tumour cell line panel, 48 h
HOP-92 = tested on: HOP-92
Malme-3M = tested on: Malme-3M
SNB-75 = tested on: SNB-75
M19-MEL = tested on: M19-MEL
KM12 = tested on: KM12
SF-295 = tested on: SF-295
ACHN = tested on: ACHN
SR = tested on: SR
SF-268 = tested on: SF-268
HL-60 = tested on: HL-60
OVCAR-3 = tested on: OVCAR-3
SK-MEL-5 = tested on: SK-MEL-5
SF-539 = tested on: SF-539
SNB-19 = tested on: SNB-19
UO-31 = tested on: UO-31
U-251 = tested on: U-251
SK-OV-3 = tested on: SK-OV-3
NCI-H460 = tested on: NCI-H460
NCI-H226 = tested on: NCI-H226
MDA-MB-435 = tested on: MDA-MB-435

Structure (SMILES)	GI50 (HOP-92)	GI50 (Malme-3M)	GI50 (SNB-75)	GI50 (M19-MEL)	GI50 (KM12)	GI50 (SF-295)	GI50 (ACHN)	GI50 (SR)	GI50 (SF-268)	GI50 (HL-60)	GI50 (OVCAR-3)	GI50 (SK-MEL-5)	GI50 (SF-539)	GI50 (SNB-19)	GI50 (UO-31)	GI50 (U-251)	GI50 (SK-OV-3)	GI50 (NCI-H460)	GI50 (NCI-H226)	GI50 (MDA-MB-435)
CC(=O)Nc1ccc(C(=O)NN2C(=O)C(Cl)C2c2cc(Br)ccc2O)cc1 (stereo not drawn)	15.2 µM (inactive)	5.55 µM (inactive)	44.4 µM (inactive)	4.12 µM (inactive)	3.44 µM (inactive)	3.66 µM (inactive)	2.99 µM (inactive)	3.45 µM (inactive)	1.91 µM (inactive)	2.71 µM (inactive)	4.11 µM (inactive)	5.04 µM (inactive)	4.19 µM (inactive)	7.62 µM (inactive)	3.72 µM (inactive)	2.59 µM (inactive)	4.42 µM (inactive)	3.09 µM (inactive)	7.36 µM (inactive)	7.69 µM (inactive)
O=C[C@@H](CO)O[C@H](C=O)c1c[nH]c(=O)[nH]c1=O	81.1 µM (inactive)	88.7 µM (inactive)	182 µM (inactive)	104 µM (inactive)	93.3 µM (inactive)	146 µM (inactive)	81.1 µM (inactive)	35.6 µM (inactive)	102 µM (inactive)	22.3 µM (inactive)	68.4 µM (inactive)	83.9 µM (inactive)	101 µM (inactive)	129 µM (inactive)	88.5 µM (inactive)	143 µM (inactive)	112 µM (inactive)	105 µM (inactive)	101 µM (inactive)	49.4 µM (inactive)
Cc1ccc2ccc3ccc(C)nc3c2n1 [NEOCUPROINE]	> 100 µM (inactive)	> 100 µM (inactive)	> 52 µM (inactive)	3.44 µM (inactive)	12.5 µM (inactive)	5.65 µM (inactive)	> 100 µM (inactive)	0.728 µM (active)	> 87.9 µM (inactive)	0.353 µM (active)	0.344 µM (active)	> 26.2 µM (inactive)	49.2 µM (inactive)	> 100 µM (inactive)	> 76.2 µM (inactive)	7.31 µM (inactive)	> 100 µM (inactive)	2.19 µM (inactive)	33.4 µM (inactive)	> 100 µM (inactive)
CCc1cccc(CC)c1NC(=O)C(C#N)C1=C(Cl)C(=O)c2ccccc2C1=O (stereo not drawn)	2.96 µM (inactive)	9.23 µM (inactive)	5.18 µM (inactive)	19.1 µM (inactive)	18.9 µM (inactive)	15.7 µM (inactive)	16.4 µM (inactive)	1.2 µM (inactive)	16.6 µM (inactive)	1.3 µM (inactive)	16.8 µM (inactive)	14.7 µM (inactive)	11.3 µM (inactive)	18.1 µM (inactive)	11.8 µM (inactive)	15.3 µM (inactive)	19.7 µM (inactive)	22.6 µM (inactive)	15 µM (inactive)	14.5 µM (inactive)
CC1(C)C(=O)/C=C\C(=O)C(C)(C)C(=O)/C=C\C(=O)C(C)(C)C(=O)/C=C\C(=O)C(C)(C)C(=O)/C=C\C1=O	12.7 µM (inactive)	17.1 µM (inactive)	> 60 µM (inactive)	20.2 µM (inactive)	40 µM (inactive)	23.6 µM (inactive)	26.8 µM (inactive)	3.94 µM (inactive)	> 45.9 µM (inactive)	3 µM (inactive)	23.8 µM (inactive)	22.6 µM (inactive)	28 µM (inactive)	52.5 µM (inactive)	34.8 µM (inactive)	27.7 µM (inactive)	> 70 µM (inactive)	56.6 µM (inactive)	> 63 µM (inactive)	31.2 µM (inactive)
CC1=C(c2cc(C(=O)Nc3cccc(C(F)(F)F)c3)nc(NC#N)n2)Sc2ccccc2N1	> 100 µM (inactive)	> 100 µM (inactive)	> 100 µM (inactive)	> 100 µM (inactive)	> 100 µM (inactive)	> 100 µM (inactive)	> 100 µM (inactive)	> 100 µM (inactive)	> 100 µM (inactive)	> 100 µM (inactive)	> 100 µM (inactive)	> 100 µM (inactive)	> 100 µM (inactive)	> 100 µM (inactive)	> 100 µM (inactive)	86.5 µM (inactive)	> 100 µM (inactive)	> 100 µM (inactive)	> 100 µM (inactive)	–
CC(C)NC(=O)CCN(C(=O)O)S(=O)(=O)c1ccc(NC(=O)c2ccccc2)cc1	> 100 µM (inactive)	> 100 µM (inactive)	> 100 µM (inactive)	> 53.3 µM (inactive)	> 65.6 µM (inactive)	> 100 µM (inactive)	> 81.3 µM (inactive)	> 52.8 µM (inactive)	> 54.5 µM (inactive)	> 48.8 µM (inactive)	> 100 µM (inactive)	> 100 µM (inactive)	24.6 µM (inactive)	> 100 µM (inactive)	> 100 µM (inactive)	15.6 µM (inactive)	> 100 µM (inactive)	> 43.2 µM (inactive)	> 100 µM (inactive)	–
